Test results published in the supplement of paper PMC11061612.

Columns and labels:
Trametinib = compound: CC(=O)Nc1cccc(-n2c(=O)n(C3CC3)c(=O)c3c(Nc4ccc(I)cc4F)n(C)c(=O)c(C)c32)c1 [Trametinib]; conditions: max 1 µM
Outline: (§1)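 Viability was measured with CellTiter-Glo 2.0 luminescence after 72 hours of dosing at a final DMSO of typically 0.2%, and scaled between blank-well and DMSO-well means. Beforehand, cancer cell lines sat 24 hours at 37°C and 5% CO2 in 1536-well plates in 7.5 μl DMEM/F12 or RPMI with 10% FBS. A non-linear mixed effects model fitted two-parameter logistic curves to the dose responses. The single-agent IC50 comes from these fits.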

AZD1390 = compound: CC(C)n1c(=O)n(C)c2cnc3cc(F)c(-c4ccc(OCCCN5CCCCC5)nc4)cc3c21 [AZD1390]; conditions: max 0.3 µM
Outline: as §1

AZD5153 = compound: COc1nnc2ccc(N3CCC(c4ccc(OCCN5CCN(C)C(=O)[C@H]5C)cc4)CC3)nn12 [AZD5153]; conditions: max 1 µM
Outline: as §1

SG3199 = compound: CC1=CN2[C@@H](C1)C=NC3=CC(=C(C=C3C2=O)OC)OCCCCCOC4=C(C=C5C(=C4)N=C[C@@H]6CC(=CN6C5=O)C)OC [SG3199]; conditions: max 0.001 µM
Outline: as §1

Gefitinib = compound: COc1cc2ncnc(Nc3ccc(F)c(Cl)c3)c2cc1OCCCN1CCOCC1 [Gefitinib]; conditions: max 10 µM
Outline: as §1

AZD8186 = compound: C[C@@H](Nc1cc(F)cc(F)c1)c1cc(C(=O)N(C)C)cc2c(=O)cc(N3CCOCC3)oc12 [AZD8186]; conditions: max 3 µM
Outline: as §1

AZD0156 = compound: CN(C)CCCOc1ccc(-c2ccc3ncc4c(c3c2)n(C2CCOCC2)c(=O)n4C)cn1 [AZD0156]; conditions: max 3 µM
Outline: as §1

Capivasertib = compound: C1CN(CCC1(C(=O)N[C@@H](CCO)C2=CC=C(C=C2)Cl)N)C3=NC=NC4=C3C=CN4 [Capivasertib]
Outline: as §1

Crizotinib = compound: C[C@@H](Oc1cc(-c2cnn(C3CCNCC3)c2)cnc1N)c1c(Cl)ccc(F)c1Cl [Crizotinib]; conditions: max 10 µM
Outline: as §1

Lapatinib = compound: CS(=O)(=O)CCNCc1ccc(-c2ccc3ncnc(Nc4ccc(OCc5cccc(F)c5)c(Cl)c4)c3c2)o1 [Lapatinib]; conditions: max 10 µM
Outline: as §1

Dasatinib = compound: CC1=C(C(=CC=C1)Cl)NC(=O)C2=CN=C(S2)NC3=CC(=NC(=N3)C)N4CCN(CC4)CCO [Dasatinib]; conditions: max 2 µM
Outline: as §1

Doxorubicin = compound: COc1cccc2c1C(=O)c1c(O)c3c(c(O)c1C2=O)C[C@@](O)(C(=O)CO)C[C@@H]3O[C@H]1C[C@H](N)[C@H](O)[C@H](C)O1 [Doxorubicin]; conditions: max 1 µM
Outline: as §1

AZD2811 = compound: CCN(CCO)CCCOc1ccc2c(Nc3cc(CC(=O)Nc4cccc(F)c4)[nH]n3)ncnc2c1 [AZD2811]; conditions: max 1 µM
Outline: as §1

AZD5991 = compound: Cc1c2c(nn1C)CSCc1cc(n(C)n1)CSc1cc(c3ccccc3c1)OCCCc1c(C(=O)O)n(C)c3c-2c(Cl)ccc13 [AZD5991]; conditions: max 1 µM
Outline: as §1

AZD4320 = compound: CN(CC[C@H](CSC1=CC=CC=C1)NC2=C(C=C(C=C2)S(=O)(=O)NC(=O)C3=CC=C(C=C3)N4CCC(CC4)[C@H](C5=CC=CC=C5C6=CC=C(C=C6)Cl)O)S(=O)(=O)C(F)(F)F)CCO [AZD4320]; conditions: max 1 µM
Outline: as §1

Savolitinib = compound: C[C@@H](c1ccc2nccn2c1)n1nnc2ncc(-c3cnn(C)c3)nc21 [Savolitinib]; conditions: max 1 µM
Outline: as §1

Olaparib = compound: O=C(c1cc(Cc2n[nH]c(=O)c3ccccc23)ccc1F)N1CCN(C(=O)C2CC2)CC1 [Olaparib]
Outline: as §1

Prexasertib = compound: COc1cccc(OCCCN)c1-c1cc(Nc2cnc(C#N)cn2)n[nH]1 [Prexasertib]; conditions: max 1 µM
Outline: as §1

Palbociclib = compound: CC(=O)c1c(C)c2cnc(Nc3ccc(N4CCNCC4)cn3)nc2n(C2CCCC2)c1=O [Palbociclib]; conditions: max 10 µM
Outline: as §1

Taselisib = compound: Cc1nc(-c2cn3c(n2)-c2ccc(-c4cnn(C(C)(C)C(N)=O)c4)cc2OCC3)n(C(C)C)n1 [Taselisib]; conditions: max 10 µM
Outline: as §1

Selumetinib = compound: Cn1cnc2c(F)c(Nc3ccc(Br)cc3Cl)c(C(=O)NOCCO)cc21 [Selumetinib]
Outline: as §1

SN-38 = compound: CCc1c2c(nc3ccc(O)cc13)-c1cc3c(c(=O)n1C2)COC(=O)[C@]3(O)CC [SN-38]; conditions: max 0.3 µM
Outline: as §1

Alisertib = compound: COc1cc(Nc2ncc3c(n2)-c2ccc(Cl)cc2C(c2c(F)cccc2OC)=NC3)ccc1C(=O)O [Alisertib]; conditions: max 10 µM
Outline: as §1

AZD1775 = compound: C=CCn1c(=O)c2cnc(Nc3ccc(N4CCN(C)CC4)cc3)nc2n1-c1cccc(C(C)(C)O)n1 [AZD1775]; conditions: max 3 µM
Outline: as §1

AZD7648 = compound: Cc1cc2ncnn2cc1Nc1ncc2c(n1)n(C1CCOCC1)c(=O)n2C [AZD7648]; conditions: max 10 µM
Outline: as §1

AZD6738 = compound: C[C@@H]1COCCN1C2=NC(=NC(=C2)C3(CC3)[S@](=N)(=O)C)C4=C5C=CNC5=NC=C4 [AZD6738]; conditions: max 10 µM
Outline: as §1

Venetoclax = compound: CC1(C)CCC(CN2CCN(c3ccc(C(=O)NS(=O)(=O)c4ccc(NCC5CCOCC5)c([N+](=O)[O-])c4)c(Oc4cnc5[nH]ccc5c4)c3)CC2)=C(c2ccc(Cl)cc2)C1 [Venetoclax]; conditions: max 1 µM
Outline: as §1

Row | Cell Line | IC50, cell viability 72 h (Trametinib) [nM] | IC50, cell viability 72 h (AZD1390) [nM] | IC50, cell viability 72 h (AZD5153) [nM] | IC50, cell viability 72 h (SG3199) [nM] | IC50, cell viability 72 h (Gefitinib) [nM] | IC50, cell viability 72 h (AZD8186) [nM] | IC50, cell viability 72 h (AZD0156) [nM] | IC50, cell viability 72 h (Capivasertib; max 10 µM) [nM] | IC50, cell viability 72 h (Crizotinib) [nM] | IC50, cell viability 72 h (Lapatinib) [nM] | IC50, cell viability 72 h (Dasatinib) [nM] | IC50, cell viability 72 h (Doxorubicin) [nM] | IC50, cell viability 72 h (AZD2811) [nM] | IC50, cell viability 72 h (AZD5991) [nM] | IC50, cell viability 72 h (AZD4320) [nM] | IC50, cell viability 72 h (Savolitinib) [nM] | IC50, cell viability 72 h (Olaparib; max 10 µM) [nM] | IC50, cell viability 72 h (Prexasertib) [nM] | IC50, cell viability 72 h (Palbociclib) [nM] | IC50, cell viability 72 h (Taselisib) [nM] | IC50, cell viability 72 h (Selumetinib; max 10 µM) [nM] | IC50, cell viability 72 h (SN-38) [nM] | IC50, cell viability 72 h (Alisertib) [nM] | IC50, cell viability 72 h (AZD1775) [nM] | IC50, cell viability 72 h (AZD7648) [nM] | IC50, cell viability 72 h (AZD6738) [nM] | IC50, cell viability 72 h (Venetoclax) [nM] | IC50, cell viability 72 h (Capivasertib; max 3 µM) [nM] | IC50, cell viability 72 h (Selumetinib; max 3 µM) [nM] | IC50, cell viability 72 h (Olaparib; max 3 µM) [nM]
1 | MFM-223 (Breast Carcinoma) | > 1000 | > 300 | > 1000 | > 1 | > 10000 | > 3000 | > 3000 | 1620 | > 10000 | > 10000 | > 2000 | > 1000 | > 1000 | > 1000 | > 1000 | > 1000 | > 10000 | 59.9 | > 10000 | 1160 | > 10000 | > 300 | 633 | 2300 | > 10000 | 5200 | > 1000 |  |  | 
2 | MOLT-16 (T-Lymphoblastic Leukemia) | > 1000 | > 300 | 76.2 | > 1 | > 10000 | > 3000 | > 3000 | 811 | 1770 | 6350 | > 2000 | 46.7 | 12.4 | 51.5 | 16.3 | > 1000 | 5600 | 11.2 | 420 | 1110 | > 10000 | 2.33 | 29.1 | 168 | > 10000 | 557 | 308 |  |  | 
3 | NCI-H847 (Small Cell Lung Carcinoma) | > 1000 |  |  | > 1 |  | 1950 | > 3000 |  |  |  |  | 281 | 58.4 | 665 | 15.6 |  | 6860 | 15.1 |  | 2330 |  | 16 | 10.1 | 143 | 5200 | 901 | > 1000 | > 3000 | > 3000 | 
4 | P12-ICHIKAWA (T-Lymphoblastic Leukemia) | > 1000 | > 300 | 89.1 |  | > 10000 | > 3000 | > 3000 | 3170 | 2230 | > 10000 | > 2000 |  | 15.4 | 252 | 37.3 | > 1000 |  | 17.3 | 1600 | > 10000 | > 10000 | 1.61 | 38.1 | 262 | > 10000 | 1020 | > 1000 |  |  | > 3000
